# Like-named read-outs stand apart in the source and are kept apart here.
# Tests used:
# E. coli ML-35pYC = assay: Membrane permeabilization assay (CENTA / ONPG kinetics); assay type: cell-based, Escherichia coli; details: peptide 12.5 μg/ml, logistic 4-parameter fit, read up to 240 min
# Description: The strain ML-35pYC of E. coli was used to assay the kinetics of membrane permeabilization performed by the peptides of the invention. This bacterial strain expresses resistance to ampicillin, constitutive expression of cytoplasmic beta-galactosidase, and is engineered with a plasmid for the synthesis of a periplasmic beta-lactamase. Sixty microliters (60 μl) of bacterial suspension of strain ML-35pYC of E. coli were added to 60 μl of a 15 mM solution of ONPG or 1.5 mM of CENTA in phosphate buffer. Subsequently, 120 μl of the test peptides were added to obtain a final concentration of 12.5 μg/ml. The kinetics of the reaction was evaluated by recording the value of absorbance at […] and 405 nm, for ONPG and CENTA respectively, every 10 min up to a maximum of 240 min.
# By “fitting” the experimental points with the logistic 4-parameter curve, it was possible to determine the inflexion point, that is the point where the curve changes direction, relative to the 3 test peptides. No inflexion point was observed during the assay with CENTA (inflexion point higher than 500 min).
# P. aeruginosa ATCC 27853 = assay type: cell-based, Pseudomonas aeruginosa; details: ATCC 27853, 2 h
# Description: Several peptides were tested for their ability to inhibit bacterial growth in liquid culture. Fifty microliters of peptide at a concentration between about 0.2 mM and 50 mM were added in 96-well U-bottom plates containing phosphate buffer 10 mM supplemented with 125 or 250 mM NaCl and one of the following bacteria: Escherichia coli ATCC 25922, P. aeruginosa ATCC 27853. After 2 hour incubation at 37° C., bacteria were transferred on a solid medium. As a growth control, the bacterial cultures were cultured in the absence of peptides.
# The bacterial suspension was put in contact for two hours with different concentrations of the peptide at the temperature of 37° C. After incubation, 20 μl were drawn from the wells of each dilution and seeded on the solid medium agar McConkey for Gram-negative bacteria and Columbia agar supplemented with 5% bovine red blood cells for Gram-positive bacteria. The inoculum was evenly distributed on the agarized medium by means of a sterile disposable loop. After incubation for 24 h at the temperature of 37° C., counting of the colony forming units (CFU) was performed.
# In table 6A, the antimicrobial activity against E. coli ATCC 25922, Pseudomonas aeruginosa ATCC 27853 in the presence of […] NaCl is reported.
compound,measurement,setting,value
"CC[C@H](C)[C@@H]1NC(=O)[C@H](CCCCN)NC(=O)[C@H](C)NC(=O)[C@@H](NC(=O)[C@H](CCCCN)NC(=O)[C@@H](N)Cc2c[nH]cn2)CSSC[C@@H](C(=O)N[C@@H](C)C(=O)O)NC(=O)[C@H](Cc2ccc(O)cc2)NC(=O)[C@H](CCCCN)NC(=O)[C@H](C(C)C)NC(=O)[C@H](Cc2c[nH]cn2)NC(=O)[C@H](C(C)C)NC(=O)CNC(=O)[C@H](CCCNC(=N)N)NC(=O)[C@H](Cc2c[nH]c3ccccc23)NC(=O)[C@H](CCCCN)NC1=O (relative stereo) [Peptide P2041, HIS*LYS*CYS*ALA*LYS*ILE*LYS*TRP*ARG*GLY*VAL*HIS*VAL*LYS*TYR*CYS*ALA]",Inflexion point CENTA,E. coli ML-35pYC; CENTA substrate (periplasmic beta-lactamase),>500 min
same,Inflexion point ONPG,E. coli ML-35pYC; ONPG substrate (cytoplasmic beta-galactosidase),16.08 min
same,Antimicrobial activity (percentage of CFU growth inhibition) P. aeruginosa,P. aeruginosa ATCC 27853; 12.5 μg/ml,100%
same,Antimicrobial activity (percentage of CFU growth inhibition) P. aeruginosa,P. aeruginosa ATCC 27853; 100 μg/ml,100%

# From patent US10421782B2, “Cyclic cationic peptides with antimicrobial activity” (I.C.F. S.R.L., priority 2012, dated 2019)
